Residue numbers refer to the chain shown, from its start. Active and inactive are the calls of the source. The calls are words filed in the database; no cut-off is given here.
Columns and labels:
[1] = biological target: T1, Muscarinic acetylcholine receptor M2 (Homo sapiens) (UniProt P08172); assay: Positive allosteric modulation of human muscarinic acetylcholine receptor M2 expressed in CHO cells; type: functional, cell-based
T1 sequence (whole entry): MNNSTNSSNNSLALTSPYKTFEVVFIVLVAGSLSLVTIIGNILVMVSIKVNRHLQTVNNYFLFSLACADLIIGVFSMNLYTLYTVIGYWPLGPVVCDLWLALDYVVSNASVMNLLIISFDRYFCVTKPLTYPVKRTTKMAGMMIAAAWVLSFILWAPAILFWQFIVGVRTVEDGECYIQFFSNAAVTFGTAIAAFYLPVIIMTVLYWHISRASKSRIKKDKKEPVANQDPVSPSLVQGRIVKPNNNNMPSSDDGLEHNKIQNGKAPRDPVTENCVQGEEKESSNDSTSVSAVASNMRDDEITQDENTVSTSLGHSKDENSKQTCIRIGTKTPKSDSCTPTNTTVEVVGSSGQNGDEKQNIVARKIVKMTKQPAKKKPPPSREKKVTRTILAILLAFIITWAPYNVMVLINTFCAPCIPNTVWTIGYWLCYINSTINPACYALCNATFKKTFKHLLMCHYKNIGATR

[2] = biological target: T2, Muscarinic acetylcholine receptor M4 (Homo sapiens) (UniProt P08173); assay: Positive allosteric modulation of human muscarinic acetylcholine receptor M4 expressed in CHO cells; type: functional, cell-based
T2 sequence (whole entry): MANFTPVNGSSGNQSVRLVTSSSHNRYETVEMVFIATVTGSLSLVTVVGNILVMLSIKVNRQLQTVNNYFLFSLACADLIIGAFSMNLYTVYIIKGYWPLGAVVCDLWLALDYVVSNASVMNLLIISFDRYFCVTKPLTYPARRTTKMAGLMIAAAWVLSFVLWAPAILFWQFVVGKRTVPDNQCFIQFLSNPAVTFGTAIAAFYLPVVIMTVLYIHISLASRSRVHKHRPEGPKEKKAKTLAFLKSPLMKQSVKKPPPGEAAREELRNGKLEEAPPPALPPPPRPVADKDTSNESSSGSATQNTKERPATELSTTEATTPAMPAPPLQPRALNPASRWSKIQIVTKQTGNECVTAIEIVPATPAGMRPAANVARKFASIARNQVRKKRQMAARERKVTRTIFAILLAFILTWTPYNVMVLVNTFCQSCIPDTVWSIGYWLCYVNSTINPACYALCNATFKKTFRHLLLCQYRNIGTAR

[3] = biological target: T3, Muscarinic acetylcholine receptor M1 (Mus musculus) (UniProt P12657); details: CHO
T3 sequence (whole entry): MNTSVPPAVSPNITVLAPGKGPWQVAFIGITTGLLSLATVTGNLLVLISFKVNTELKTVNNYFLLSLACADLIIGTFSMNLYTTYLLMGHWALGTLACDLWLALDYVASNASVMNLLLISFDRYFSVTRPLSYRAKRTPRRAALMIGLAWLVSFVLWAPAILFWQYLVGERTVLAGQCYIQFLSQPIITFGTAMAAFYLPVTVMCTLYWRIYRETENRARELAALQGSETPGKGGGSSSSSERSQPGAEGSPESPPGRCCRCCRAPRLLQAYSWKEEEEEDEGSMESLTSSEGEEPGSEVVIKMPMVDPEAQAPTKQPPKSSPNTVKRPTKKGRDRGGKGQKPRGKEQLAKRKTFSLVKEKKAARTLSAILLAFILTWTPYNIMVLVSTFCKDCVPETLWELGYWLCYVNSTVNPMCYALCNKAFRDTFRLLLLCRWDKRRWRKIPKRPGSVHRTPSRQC
Description: Positive allosteric modulation of mouse muscarinic acetylcholine receptor M1 expressed in CHO cells assessed as increase in acetylcholine-induced calcium mobilization pretreated for 4 mins followed by acetylcholine addition and measured after 4 mins by Fluo-4-AM dye based FLIPR assay

[4] = biological target: T4, Muscarinic acetylcholine receptor (Canis lupus familiaris) (UniProt A0A8C0MJA7); details: CHO
T4 sequence (whole entry): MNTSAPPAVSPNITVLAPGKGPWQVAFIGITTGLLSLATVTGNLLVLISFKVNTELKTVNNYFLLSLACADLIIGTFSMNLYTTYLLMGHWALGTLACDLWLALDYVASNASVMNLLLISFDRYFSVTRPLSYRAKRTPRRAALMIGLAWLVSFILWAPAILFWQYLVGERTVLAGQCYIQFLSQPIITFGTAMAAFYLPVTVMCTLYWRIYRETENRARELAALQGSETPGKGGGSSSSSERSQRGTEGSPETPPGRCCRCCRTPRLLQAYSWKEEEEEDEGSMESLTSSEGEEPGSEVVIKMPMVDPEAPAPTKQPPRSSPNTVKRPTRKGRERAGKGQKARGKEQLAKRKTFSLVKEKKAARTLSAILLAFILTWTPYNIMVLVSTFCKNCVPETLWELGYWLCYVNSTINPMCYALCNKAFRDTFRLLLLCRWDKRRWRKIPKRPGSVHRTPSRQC
Description: Positive allosteric modulation of dog muscarinic acetylcholine receptor M1 expressed in CHO cells assessed as increase in acetylcholine-induced calcium mobilization pretreated for 4 mins followed by acetylcholine addition and measured after 4 mins by Fluo-4-AM dye based FLIPR assay

[5] = biological target: T5, Muscarinic acetylcholine receptor M1 (Macaca mulatta) (UniProt P56489); details: CHO
T5 sequence (whole entry): T3 sequence (whole entry) with V5A, S254T, A265P, E277D, K320R, G337A, V413I
Description: Positive allosteric modulation of rhesus monkey muscarinic acetylcholine receptor M1 expressed in CHO cells assessed as increase in acetylcholine-induced calcium mobilization pretreated for 4 mins followed by acetylcholine addition and measured after 4 mins by Fluo-4-AM dye based FLIPR assay

Cc1ccc(Cc2cc3c(=O)n([C@H]4CCCC[C@@H]4O)cnc3c3ccccc23)cn1
Activity [1]: inactive | Activity [2]: inactive | IP [3]: 6.7 nM | IP [4]: 1.4 nM | IP [5]: 3.8 nM
